Assay results published in the NIST ThermoML archive (doi:10.1016/j.jct.2017.10.014).
± gives the expanded uncertainty stated by the source.

What was measured:
[1] = mn = molality of the nth substance listed, in mol/kg; details: 100 kPa, Liquid, Capillary tube (Ostwald / Ubbelohde) method
[2] = xn = mol fraction of the nth substance listed; details: 100 kPa, Liquid, Vibrating tube method

CC(C)(CO)[C@@H](O)C(=O)NCCCO [d-Panthenol] + O
Details	mass density, 293.15 K [kg/m3]	mass density, 298.15 K [kg/m3]	mass density, 303.15 K [kg/m3]	mass density, 308.15 K [kg/m3]	mass density, 313.15 K [kg/m3]	viscosity, 293.15 K [mPa·s]	viscosity, 298.15 K [mPa·s]	viscosity, 303.15 K [mPa·s]	viscosity, 308.15 K [mPa·s]	viscosity, 313.15 K [mPa·s]
[1], m1 = 0.01	–	–	–	–	–	1.009 ± 0.021	0.896 ± 0.019	0.803 ± 0.017	0.724 ± 0.015	0.657 ± 0.014
[1], m1 = 0.05	–	–	–	–	–	1.039 ± 0.022	0.923 ± 0.019	0.826 ± 0.017	0.744 ± 0.016	0.675 ± 0.014
[1], m1 = 0.1001	–	–	–	–	–	1.078 ± 0.022	0.957 ± 0.02	0.855 ± 0.018	0.769 ± 0.016	0.697 ± 0.015
[1], m1 = 0.1989	–	–	–	–	–	1.159 ± 0.024	1.027 ± 0.021	0.917 ± 0.019	0.822 ± 0.017	0.743 ± 0.016
[1], m1 = 0.3002	–	–	–	–	–	1.246 ± 0.026	1.1 ± 0.023	0.98 ± 0.02	0.877 ± 0.018	0.791 ± 0.017
[1], m1 = 0.4006	–	–	–	–	–	1.334 ± 0.028	1.173 ± 0.024	1.045 ± 0.022	0.932 ± 0.019	0.839 ± 0.018
[1], m1 = 0.4997	–	–	–	–	–	1.421 ± 0.03	1.253 ± 0.026	1.105 ± 0.023	0.99 ± 0.021	0.887 ± 0.019
[2], x1 = 0.0036	1004.95 ± 1.6	1003.69 ± 1.6	1002.18 ± 1.6	1000.46 ± 1.6	998.5 ± 1.6	–	–	–	–	–
[2], x1 = 0.0054	1008.18 ± 1.6	1006.88 ± 1.6	1005.33 ± 1.6	1003.56 ± 1.6	1001.53 ± 1.6	–	–	–	–	–
[2], x1 = 0.0071	1011.3 ± 1.6	1009.95 ± 1.6	1008.35 ± 1.6	1006.55 ± 1.6	1004.49 ± 1.6	–	–	–	–	–
[2], x1 = 0.0089	1014.36 ± 1.6	1012.97 ± 1.6	1011.34 ± 1.6	1009.5 ± 1.6	1007.4 ± 1.6	–	–	–	–	–
[2], x1 = 0.0107	1017.42 ± 1.6	1016 ± 1.6	1014.32 ± 1.6	1012.45 ± 1.6	1010.32 ± 1.6	–	–	–	–	–
[2], x1 = 0.0124	1020.22 ± 1.6	1018.76 ± 1.6	1017.07 ± 1.6	1015.14 ± 1.6	1012.99 ± 1.6	–	–	–	–	–
[2], x1 = 0.0142	1023.06 ± 1.6	1021.57 ± 1.6	1019.84 ± 1.6	1017.89 ± 1.6	1015.72 ± 1.6	–	–	–	–	–
[2], x1 = 0.0248	1039.61 ± 1.6	1037.84 ± 1.6	1035.87 ± 1.6	1033.67 ± 1.6	1031.28 ± 1.6	–	–	–	–	–
[2], x1 = 0.031	1049.02 ± 1.6	1046.69 ± 1.6	1044.71 ± 1.6	1042.43 ± 1.6	1039.83 ± 1.6	–	–	–	–	–
[2], x1 = 0.0376	1055.92 ± 1.6	1053.81 ± 1.6	1051.55 ± 1.6	1049.07 ± 1.6	1046.45 ± 1.6	–	–	–	–	–
[2], x1 = 0.0501	1068.98 ± 1.6	1066.6 ± 1.6	1064.45 ± 1.6	1062.19 ± 1.6	1059.96 ± 1.6	–	–	–	–	–
[2], x1 = 0.0996	1102.82 ± 1.6	1099.84 ± 1.6	1096.7 ± 1.6	1093.45 ± 1.6	1090.55 ± 1.6	–	–	–	–	–
[2], x1 = 0.1997	1134.36 ± 1.6	1130.9 ± 1.6	1127.26 ± 1.6	1123.64 ± 1.6	1119.93 ± 1.6	–	–	–	–	–
[2], x1 = 0.2495	1141.94 ± 1.6	1138.2 ± 1.6	1134.68 ± 1.6	1130.9 ± 1.6	1127.21 ± 1.6	–	–	–	–	–
[2], x1 = 0.2871	1146.56 ± 1.6	1142.9 ± 1.6	1139.2 ± 1.6	1135.41 ± 1.6	1131.52 ± 1.6	–	–	–	–	–
[2], x1 = 0.342	1151.05 ± 1.6	1147.23 ± 1.6	1143.4 ± 1.6	1139.69 ± 1.6	1135.87 ± 1.6	–	–	–	–	–
[2], x1 = 0.4007	1154.55 ± 1.6	1150.87 ± 1.6	1146.9 ± 1.6	1143.02 ± 1.6	1139.25 ± 1.6	–	–	–	–	–
[2], x1 = 0.4958	1158.52 ± 1.6	1154.87 ± 1.6	1151.08 ± 1.6	1147.04 ± 1.6	1143.29 ± 1.6	–	–	–	–	–
[2], x1 = 0.5944	1160.64 ± 1.7	1157.16 ± 1.7	1153.51 ± 1.7	1149.72 ± 1.7	1145.77 ± 1.6	–	–	–	–	–
[2], x1 = 0.708	1162.75 ± 1.7	1159.25 ± 1.7	1155.76 ± 1.7	1152.16 ± 1.7	1148.24 ± 1.7	–	–	–	–	–
[2], x1 = 0.8067	1163.58 ± 1.8	1160.22 ± 1.8	1156.74 ± 1.8	1153.27 ± 1.8	1149.57 ± 1.8	–	–	–	–	–
[2], x1 = 0.8753	1164.26 ± 1.8	1160.86 ± 1.8	1157.46 ± 1.8	1153.96 ± 1.8	1150.3 ± 1.8	–	–	–	–	–
[2], x1 = 1	1165.18 ± 1.9	1161.68 ± 1.9	1158.27 ± 1.9	1154.96 ± 1.9	1151.46 ± 1.9	–	–	–	–	–
